Assay [1] concerns the target Substance-P receptor (Homo sapiens, UniProt P25103). The assay is described as follows: Binding affinity towards wild type human Wild-type tachykinin receptor 1 expressed in Chinese hamster ovary cells. Type of assay: cell-based.
Assay [2] addresses Substance-P receptor (Homo sapiens, UniProt P25103, H197A). Briefly: Binding affinity towards human mutant NK-1 receptor in which His-197 has been replaced by alanine (H197A).

Each structure is given as a SMILES string.

Among the data in ChEMBL document CHEMBL1128165, “Quinuclidine-based NK1 antagonists, the role of the benzhydryl” (Bioorg Med Chem Lett, 1995) are IC50 values, retold here.

Substance-P receptor (Homo sapiens, UniProt P25103), sequence (P25103 whole entry): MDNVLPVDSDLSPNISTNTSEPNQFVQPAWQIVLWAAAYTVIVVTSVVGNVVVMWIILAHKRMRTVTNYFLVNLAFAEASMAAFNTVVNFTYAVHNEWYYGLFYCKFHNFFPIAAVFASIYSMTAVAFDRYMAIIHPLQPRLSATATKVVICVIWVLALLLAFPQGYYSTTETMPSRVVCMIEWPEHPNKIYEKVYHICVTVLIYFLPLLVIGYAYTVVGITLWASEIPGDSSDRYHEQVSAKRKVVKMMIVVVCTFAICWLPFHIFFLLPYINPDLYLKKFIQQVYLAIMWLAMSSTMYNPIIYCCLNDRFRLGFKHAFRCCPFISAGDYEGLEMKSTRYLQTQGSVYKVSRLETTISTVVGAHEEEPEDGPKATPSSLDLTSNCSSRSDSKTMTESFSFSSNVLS
Substance-P receptor (Homo sapiens, UniProt P25103, H197A), sequence (P25103 whole entry H197A): as the sequence (P25103 whole entry) above, with H197A counted along it

Turning to `FC(F)(F)c1cc(CO[C@H]2C3CCN(CC3)[C@H]2Cc2ccccc2)cc(C(F)(F)F)c1`, the 50% inhibitory concentration (IC50) (usually the concentration needed to halve the response being measured) on Substance-P receptor [1] turned out to be 197 nM; on Substance-P receptor [2], 500 nM.
Turning to `Cc1cc(C)cc(CO[C@H]2C3CCN(CC3)[C@H]2Cc2ccccc2)c1`, the 50% inhibitory concentration (IC50) is 292 nM on Substance-P receptor [1] and 845 nM at Substance-P receptor [2].
For the compound `Cc1cc(C)cc(CO[C@H]2C3CCN(CC3)[C@H]2C(c2ccccc2)c2ccccc2)c1` [L-706125], the half-maximal inhibitory concentration (IC50) is 2 nM on Substance-P receptor [1] and 196 nM on Substance-P receptor [2].
For `FC(F)(F)c1cc(CO[C@H]2C3CCN(CC3)[C@H]2C(c2ccccc2)c2ccccc2)cc(C(F)(F)F)c1` [L-709210], in that order: 2 nM and 330 nM.
